Assay results from US20240010641A1, “N-Linked Glycosylation Inhibitors and Methods of Using Same” (YALE UNIVERSITY, priority 2020, published 2024).

Columns and labels:
Format in all cases: cell-based
[1] = test system: protein glycosylation in HEK293 cells; experiment: Western blots of protein glycoforms after OST inhibitor treatment, HEK293 cells; details: 24 hrs, Western blot, FIG. 1
Method: FIG. 1 illustrates Western blots of protein glycoforms after OST inhibitor treatment in vitro. HEK293 cells were treated with each inhibitor for 24 hrs at indicated concentrations. Changes in glycosylation are shown by reduced molecular weight.
(§1) Inhibition of glycosylation is then confirmed by analysis of glycoprotein size using western blots. Increased gel mobility of proteins such as the EGFR or Halo3N indicate loss of protein glycosylation (FIGS. 1-2).

[2] = test system: N-linked glycosylation (OST) in CHO-ER-LucT cells; experiment: CHO-ER-LucT luminescence assay for inhibition of N-linked glycosylation; details: for Emax: 24 h, [compound's fold change-1.0 (DMSO)]/[NGI-1 fold change-1.0 (DMSO)]*100, read-out: Max activity (% NGI-1); for AC50: CHO-ER-LucT cells, 24 hrs exposure, seven-point dose dilution, luminescence
Method: The CHO-ER-LucT cells have been previously described (Contessa et al., 2010, Clinical Cancer Research, 16(12):3205-14) and are used for testing analog IC50 for inhibition of N-linked glycosylation in 96 or 384 well plate format. In these cells induction of luminescence is dependent on inhibition of glycosylation (and OST inhibition), and is determined after 24 hrs of exposure to the analog following the addition of luciferin substrate. The luminescent signal is then quantified using standard plate readers that detect luminescence (e.g., Biotek synergy). Experiments are performed over a seven-point dose dilution to generate dose response data and to identify IC50 values and maximal activity compared to controls. Data is transformed to log 10 values to generate a sigmoidal shaped dose response curve and fitted using nonlinear regression (curve fit) in GraphPad Prism7.
All HL compounds were tested in CHO-ER-LucT cells. IC50 (AC50) was estimated in following method: Concentration X is converted to logarithm (log10) to generate sigmoidal shape curve and dose response curve is generated using Nonlinear regression (curve fit) in Prism. EC50 (AC50) is calculated using log(agonist) vs response-(three parameters)] which uses standard Hill slope (=1).
Max activity: [compound's fold change−1.0 (DMSO)]/[NGI−1 fold change−1.0 (DMSO)]*100(%) (Eq. 1)

[3] = test system: STT3A (HEK293 STT3B KO cells); experiment: Western blots of protein glycoforms, HEK293 cells with knockout of STT3B; details: 24 hrs, Western blot, FIG. 2, indicating enhanced specificity for STT3A
Method: FIG. 2 illustrates Western blots of protein glycoforms after OST inhibitor treatment in vitro using HEK293 cells with knockout (KO) of either STT3A or STT3B. Cells were treated with each inhibitor for 24 hrs at indicated concentrations. Changes in glycosylation are shown by reduced molecular weight.
as §1

[4] = test system: N-linked glycosylation in D54; experiment: ER-LucT type AC50 determination in D54 cells (NGI-1 only); details: Homo sapiens

SMILES | Changes in glycosylation (reduced molecular weight of protein glycoforms) [1] | Emax [2] | AC50 [2] | Effect on glycosylation in STT3B KO cells [3] | AC50 [4]
CCc1cnc(NC(=O)c2cc(S(=O)(=O)N3CCOCC3)ccc2N(C)CC2CC2)s1 [Example 3, 2-((cyclopropylmethyl)(methyl)amino)-N-(5-ethylthiazol-2-yl)-5-(morpholinosulfonyl)benzamide] | more potent effect | 215% | 59 nM | more potent effect | 
CCc1cnc(NC(=O)c2cc(S(=O)(=O)N3CCOCC3)ccc2N(C)C2CCCC2)s1 [Example 4, 2-(cyclopentyl(methyl)amino)-N-(5-ethylthiazol-2-yl)-5-(morpholinosulfonyl)benzamide] | more potent effect | 206% | 87 nM | more potent effect | 
CCc1cnc(NC(=O)c2cc(S(=O)(=O)N(C)C)cnc2N(C)CC2CC2)s1 [Example 22, 2-((cyclopropylmethyl)(methyl)amino)-5-(N,N-dimethylsulfamoyl)-N-(5-ethylthiazol-2-yl)nicotinamide] |  | 126% | 572 nM |  | 
Cc1nc(NC(=O)c2cc(S(=O)(=O)N(C)C)cnc2N(C)CC2CC2)sc1C [Example 23, 2-((cyclopropylmethyl)(methyl)amino)-5-(N,N-dimethylsulfamoyl)-N-(4,5-dimethylthiazol-2-yl)nicotinamide] |  | 59% | 863 nM |  | 
CN(CC1CC1)c1ncc(S(=O)(=O)N(C)C)cc1C(=O)Nc1nc2c(s1)COCC2 [Example 24, 2-((cyclopropylmethyl)(methyl)amino)-N-(6,7-dihydro-4H-pyrano[4,3-d]thiazol-2-yl)-5-(N,N-dimethylsulfamoyl)nicotinamide] |  | 43% | 17300 nM |  | 
CCc1cnc(NC(=O)c2cc(S(=O)(=O)N(C)C)cnc2N(C)C2CCCC2)s1 [Example 25, 2-(cyclopentyl(methyl)amino)-5-(N,N-dimethylsulfamoyl)-N-(5-ethylthiazol-2-yl)nicotinamide] |  | 108% | 309 nM |  | 
CCc1cnc(NC(=O)c2cc(S(=O)(=O)N3CCOCC3)cnc2N(C)CC2CC2)s1 [Example 26, 2-((cyclopropylmethyl)(methyl)amino)-N-(5-ethylthiazol-2-yl)-5-(morpholinosulfonyl)nicotinamide] |  | 104% | 851 nM |  | 
CCc1cnc(NC(=O)c2cc(S(=O)(=O)N3CCOCC3)nnc2N(C)CC2CC2)s1 [Example 27, 3-((cyclopropylmethyl)(methyl)amino)-N-(5-ethylthiazol-2-yl)-6-(morpholinosulfonyl)pyridazine-4-carboxamide] |  | 13.3% | 115 nM |  | 
CCc1cnc(NC(=O)c2nc(S(=O)(=O)N3CCOCC3)ccc2N(C)CC2CC2)s1 [Example 28, 3-((cyclopropylmethyl)(methyl)amino)-N-(5-ethylthiazol-2-yl)-6-(morpholinosulfonyl)picolinamide] |  | 33.3% | 7920 nM |  | 
Cc1nc(NC(=O)c2cc(S(=O)(=O)N(C)C)cc(F)c2N2CCCC2)sc1C [Example 29, 5-(N,N-dimethylsulfamoyl)-N-(4,5-dimethylthiazol-2-yl)-3-fluoro-2-(pyrrolidin-1-yl)benzamide] |  | 62.6% | 4990 nM |  | 
CCc1cnc(NC(=O)c2cc(S(=O)(=O)N3CCOCC3)c(F)cc2N(C)CC2CC2)s1 [Example 30, 2-((cyclopropylmethyl)(methyl)amino)-N-(5-ethylthiazol-2-yl)-4-fluoro-5-(morpholinosulfonyl)benzamide] |  | 96.4% | 371 nM |  | 
Cc1nc(NC(=O)c2cc(S(=O)(=O)N3CCOCC3)c(F)cc2N(C)CC2CC2)sc1C [Example 31, 2-((cyclopropylmethyl)(methyl)amino)-N-(4,5-dimethylthiazol-2-yl)-4-fluoro-5-(morpholinosulfonyl)benzamide] |  | 61.2% | 431 nM |  | 
Cc1nc(NC(=O)c2cc(S(=O)(=O)N(C)C)c(F)cc2N2CCCC2)sc1C [Example 32, 5-(N,N-dimethylsulfamoyl)-N-(4,5-dimethylthiazol-2-yl)-4-fluoro-2-(pyrrolidin-1-yl)benzamide] |  | 52.6% | 3840 nM |  | 
Cc1ccc(NC(=O)c2cc(S(=O)(=O)N(C)C)ccc2N2CCC(F)(F)C2)cc1 [Example 33, 2-(3,3-difluoropyrrolidin-1-yl)-5-(N,N-dimethylsulfamoyl)-N-(p-tolyl)benzamide] |  | 67.5% | 5840 nM |  | 
Cc1nc(NC(=O)c2cc(S(=O)(=O)N(C)C)ccc2N2CCC(F)(F)C2)sc1C [Example 34, 2-(3,3-difluoropyrrolidin-1-yl)-5-(N,N-dimethylsulfamoyl)-N-(4,5-dimethylthiazol-2-yl)benzamide] |  | 76.9% | 738 nM |  | 
Cc1csc(NC(=O)c2cc(S(=O)(=O)N(C)C)ccc2N2CCC(F)(F)C2)n1 [Example 35, 2-(3,3-difluoropyrrolidin-1-yl)-5-(N,N-dimethylsulfamoyl)-N-(4-methylthiazol-2-yl)benzamide] |  | 70% | 3000 nM |  | 
CCc1cnc(NC(=O)c2cc(S(=O)(=O)N3CCOCC3)ccc2N2CCC(F)(F)C2)s1 [Example 36, 2-(3,3-difluoropyrrolidin-1-yl)-N-(5-ethylthiazol-2-yl)-5-(morpholinosulfonyl)benzamide] |  | 137% | 591 nM |  | 
CCc1cnc(NC(=O)c2cc(S(=O)(=O)N(C)C)ccc2N2CCC(F)(F)C2)s1 [Example 37, 2-(3,3-difluoropyrrolidin-1-yl)-5-(N,N-dimethylsulfamoyl)-N-(5-ethylthiazol-2-yl)benzamide] |  | 126% | 565 nM |  | 
Cc1nc(NC(=O)c2cc(S(=O)(=O)N3CCOCC3)ccc2N2CCC(F)(F)C2)sc1C [Example 38, 2-(3,3-difluoropyrrolidin-1-yl)-N-(4,5-dimethylthiazol-2-yl)-5-(morpholinosulfonyl)benzamide] |  | 42.8% | 748 nM |  | 
Cc1cnc(NC(=O)c2cc(S(=O)(=O)N(C)C)ccc2N2CCCC2)s1 [NGI-1, 5-(N,N-Dimethylsulfamoyl)-N-(5-methylthiazol-2-yl)-2-(pyrrolidin-1-yl)benzamide, reference compound] |  | 100% | 1110 nM |  | 712 nM
